Assay [1] can be described thus: UV-Vis absorbance ratio of sterol/AmB (affinity comparison). In kind it is binding. Conditions: for affinity ordering of these three sterols to AmB: FIG. 1, molar ratios from 1:1 to 20:1. The procedure: (1) Adding 23.1 mg Amphotericin B (AmB) to 5 ml dimethyl sulfoxide (DMSO), and then adding in 495 ml ionized water to prepare a mixture, and taking 10 ml volume out of the mixture; diluting the 10 volume with 30 ml 1% dimethyl sulfoxide (DMSO) solution to prepare 12.5 μM Amphotericin B (AmB) aqueous solution. (2) Adding 13 g n-propanol to 187 ml ionized water to prepare 6.5% n-propanol aqueous solution. (3) Adding 28.9 mg cholesterol to 19.5 g n-propanol, shaking them to completely dissolve cholesterol in n-propanol, and then adding in 280.5 gram ionized water to prepare 250 μM cholesterol aqueous solution. (4) Adding […] stigmasterol to 19.5 g n-propanol, shaking them to completely dissolve stigmasterol in n-propanol, and then adding in 280.5 gram ionized water to prepare 250 μM stigmasterol aqueous solution. (5) Adding 29.7 mg ergosterol to 19.5 g n-propanol, shaking them to completely dissolve ergosterol in n-propanol, and then adding in 280.5 gram ionized water to prepare 250 μM ergosterol aqueous solution. (6) Mixing 10 ml 12.5 μM AmB aqueous solution with 10 ml 250 μM cholesterol aqueous solution. The molar ratio of AmB/cholesterol is 1/20. The UV-Vis absorbance ratio A415nm/A350nm of AmB/cholesterol is 0.61 (scanning from 300 nm to 450 nm). (7) Mixing 10 ml 12.5 μM AmB aqueous solution, 5 ml 6.5% n-propanol aqueous solution and 5 ml 250 μM cholesterol aqueous solution. The molar ratio of AmB/cholesterol is 1/10. The UV-Vis absorbance ratio A415nm/A350nm of AmB/cholesterol is 0.59. (8) Mixing 10 ml 12.5 μM AmB aqueous solution, 7.5 ml 6.5% n-propanol aqueous solution and 2.5 ml 250 μM cholesterol aqueous solution. The molar ratio of AmB/cholesterol is 1/5. The UV-Vis absorbance ratio A415nm/A350nm of AmB/cholesterol is 0.60. (9) Mixing 10 ml 12.5 μM AmB aqueous solution, 9.5 ml 6.5% n-propanol aqueous solution and 0.5 ml 250 μM cholesterol aqueous solution. The molar ratio of AmB/cholesterol is 1/1. The UV-Vis absorbance ratio A415nm/A350nm of AmB/cholesterol is 0.49. (10) Measuring absorbance ratio of stigmasterol/AmB and ergosterol/AmB by the procedures with the same, the result is shown in FIG. 1.
(§1) Using UV-Vis spectroscopy to measure UV-Vis absorbance ratios of cholesterol-PEG600, stigmasterol-PEG600 and ergosterol-PEG600 prepared in Example I to AmB and UV-Vis absorbance ratios of cholesterol, stigmasterol and ergosterol to AmB. The results are as shown in FIG. 1 and FIG. 2, in which FIG. 1 is a curve diagram of A415nm/A350nm vs. sterol/AmB and FIG. 2 is a curve diagram of A415nm/A350nm vs. sterol-PEG600/AmB.

A short description of assay [2]: UV-Vis absorbance ratio of sterol-PEG/AmB (affinity comparison). In kind it is binding. The settings on record: for affinity ordering of sterol-PEG to AmB / variation of the UV-Vis absorbance ratios A415nm/A350nm: FIG. 2; for variation of the UV-Vis absorbance ratios A415nm/A350nm: for any mixing molar ratios with AmB. The procedure:
(1) Adding 23.1 mg AmB aqueous solution to 5 ml dimethyl sulfoxide (DMSO), and then adding in 495 ml ionized water to prepare a mixture. Taking 10 ml volume out of the mixture, and diluting the 10 ml volume with 30 ml 1% dimethyl sulfoxide (DMSO) aqueous solution to prepare 12.5 μM AmB aqueous solution. (2) Adding 13 g n-propanol to 187 ml ionized water to prepare 6.5% n-propanol aqueous solution. (3) Adding 24.4 mg cholesterol-PEG600 to 6.5 g n-propanol, shaking them to completely dissolve cholesterol-PEG600 in n-propanol, and then adding in 93.5 g ionized water to prepare 250 μM cholesterol-PEG600 aqueous solution. (4) Adding […] stigmasterol-PEG600 to 6.5 g n-propanol, shaking them to completely dissolve stigmasterol-PEG600 in n-propanol, and then adding in 93.5 g ionized water to prepare 250 μM stigmasterol-PEG600 aqueous solution. (5) Adding 24.6 mg ergosterol-PEG600 to 6.5 g n-propanol, shaking them to completely dissolve ergosterol-PEG600 in n-propanol, and then adding in 93.5 g ionized water to prepare 250 μM ergosterol-PEG600 aqueous solution. (6) Mixing 10 ml 12.5 μM AmB and 10 ml 250 μM cholesterol-PEG600, the molar ratio of AmB/cholesterol-PEG600 is 1/20. The UV-Vis absorbance ratio A415nm/A350nm of AmB/cholesterol is 0.40 (scanning from 300 nm to 450 nm). (7) Mixing 10 ml 12.5 μM AmB, 5 ml 6.5% n-propanol and 5 ml 250 μM cholesterol-PEG600. The molar ratio of AmB/cholesterol-PEG600 is 1/10. The UV-Vis absorbance ratio of A415nm/A350nm of AmB/cholesterol-PEG600 is 0.44. (8) Mixing 10 ml 12.5 μM AmB, 7.5 ml 6.5% n-propanol and 2.5 ml 250 μM cholesterol-PEG600. The molar ratio of AmB/cholesterol-PEG600 is 1/5. The UV-Vis absorbance ratio of A415nm/A350nm of AmB/cholesterol-PEG600 is 0.48. (9) Mixing 10 ml 12.5 μM AmB, 9.5 ml 6.5% n-propanol and 0.5 ml 250 μM cholesterol-PEG600. The molar ratio of AmB/cholesterol-PEG600 is 1/1. The UV-Vis absorbance ratio of A415nm/A350nm of AmB/cholesterol-PEG600 is 0.48. (10) Measuring absorbance ratio of stigmasterol-PEG600/AmB and ergosterol-PEG600/AmB by the procedures with the same, the result is shown in FIG. 2.
as §1

The conditions of assay [3]: background statement; cited from earlier work.

As for `CC(C)[C@@H](C)/C=C/[C@@H](C)[C@H]1CC[C@H]2C3=CC=C4C[C@@H](O)CC[C@]4(C)[C@H]3CC[C@]12C` [ergosterol], in assay [1], the “affinity ordering of these three sterols to AmB” value is “cholesterol<stigmasterol<ergosterol”.

For `CC[C@H](/C=C/[C@@H](C)[C@H]1CC[C@H]2[C@@H]3CC=C4C[C@@H](O)CC[C@]4(C)[C@H]3CC[C@]12C)C(C)C` [stigmasterol], the “affinity ordering of these three sterols to AmB” value in assay [1] is given as “cholesterol<stigmasterol<ergosterol”.

Take stigmasterol-PEG600: in assay [2], the “affinity ordering of sterol-PEG to AmB” value is recorded as “ergosterol-PEG600>stigmasterol-PEG600>cholesterol-PEG600” and the “variation of the UV-Vis absorbance ratios A415nm/A350nm” value is reported as “insignificant”.

For cholesterol-PEG600, in assay [2], the “affinity ordering of sterol-PEG to AmB” value is listed as “ergosterol-PEG600>stigmasterol-PEG600>cholesterol-PEG600”. In assay [2], the “variation of the UV-Vis absorbance ratios A415nm/A350nm” value was “insignificant”. Besides, the entries for the “UV-Vis absorbance ratio A415nm/A350nm” value in assay [2] (molar ratio of AmB/cholesterol-PEG600 1/1), in assay [2] (molar ratio of AmB/cholesterol-PEG600 1/5) and in assay [2] (molar ratio of AmB/cholesterol-PEG600 1/10) were 0.48, 0.48 and 0.44, respectively.

ergosterol-PEG600: in assay [2], the “affinity ordering of sterol-PEG to AmB” value is “ergosterol-PEG600>stigmasterol-PEG600>cholesterol-PEG600” and the “variation of the UV-Vis absorbance ratios A415nm/A350nm” value is given as “insignificant”.

On to `C[C@@H]1[C@H](O)[C@@H](C)/C=C/C=C/C=C/C=C/C=C/C=C/C=C/[C@H](O[C@@H]2O[C@H](C)[C@@H](O)[C@H](N)[C@@H]2O)C[C@@H]2O[C@](O)(C[C@@H](O)C[C@@H](O)[C@H](O)CC[C@@H](O)C[C@@H](O)CC(=O)O[C@H]1C)C[C@H](O)[C@H]2C(=O)O` [Amphotericin B], for which, in assay [3], the “affinity for ergosterol of fungal cells compared with that for cholesterols of mammal” value is on record as “ten times better”.

For the compound `CC(C)CCC[C@@H](C)[C@H]1CC[C@H]2[C@@H]3CC=C4C[C@@H](O)CC[C@]4(C)[C@H]3CC[C@]12C` [cholesterol], the “affinity ordering of these three sterols to AmB” value in assay [1] is “cholesterol<stigmasterol<ergosterol”. In addition, the “UV-Vis absorbance ratio A415nm/A350nm” value in assay [1] (molar ratio of AmB/cholesterol 1/1) is 0.49; in assay [1] (molar ratio of AmB/cholesterol 1/5), 0.60; in assay [1] (molar ratio of AmB/cholesterol 1/10), 0.59; in assay [1] (molar ratio of AmB/cholesterol 1/20, scanning from 300 nm to 450 nm), 0.61; in assay [2] (molar ratio of AmB/cholesterol-PEG600 1/20, scanning from 300 nm to 450 nm), 0.40.

The values above are taken from patent publication US20090220599A1, “Antifungal formulation and manufacturing method thereof” (Industrial Technology Research Institute, priority 2003, published 2009).
